Assay [1] addresses AMPA receptor. In words: AMPA receptor affinity (receptor binding, as described by T. Honore et al.). Conditions: Neuroscience Letters 54, 27-32 (1985). From the text:
In Vitro activity (receptor affinity):
The compounds of the present invention has been tested for their affinity for the AMPA receptor as described by T. Honore et al., Neuroscience Letters 54, 27-32 (1985). IC50 values appear from the following Table 1.

The subject of assay [2] is cultured mouse cerebral cortex neurons. In words: Inhibition of stimulated 3H-GABA release from cultured cerebral cortex neurons. The format is cell-based. Conditions: Cerebral cortex neuron, 37° C., pH 7.4, stimulated 30 sec every 4 min. From the text:
The compounds of the invention have also been tested for their ability to inhibit GABA release from cultured mouse cerebral cortex neurons using the following test:
Background: Neurons which express receptors for excitatory amino acids can be depolarized by such compounds and this depolarization will ultimately lead to a release of transmitter substance from the neurons. Cultured neurons obtained from 15-day-old mouse embryo cortex are mainly GABAergic and express all types of excitatory amino acid receptors. This means that they can be stimulated by high potassium or by the excitatory amino acids, NMDA, AMPA and kainate to release their neurotransmitter GABA.
^3 H-GABA may be used to label the GABA transmitter pool in the neurons and the release of ^3 H-GABA from the neurons may be used as a simple functional model for studies of the effects of excitatory amino acids and their antagonists.
Method: Cerebral cortices of 16-day-old mouse embryos are chopped in 0.4×0.4 mm cubes. The tissue is dissociated by mild trypsinization (0.1% (wt/vol) trypsin, 37° C., 15 min) and subsequently inoculated into poly-L-lysine-coated 3-cm Petri dishes containing a slightly modified DMEM (24.5 mM KCI, 30 mM glucose) supplemented with p-aminobenzoate (7 μM), insulin (100 mU/L) and 10% (vol/vol) horse serum. Cells are maintained in culture for 5-7 days with the addition of the antimitotic agent cytosine arbinoside (40 μM) from day 2 in vitro to prevent glial profileration. For further details and references, see Drejer et al. Exp. Brain Res. 47, 259 (1982).
Release experiments are performed using the model described by Drejer et al. Life Sci. 38, 2077 (1986). Cerebral cortex neurons cultured in Petri dishes (30 mm) are added 100 μM γ-vinyl-GABA one hour before the experiment in order to inhibit degradation of GABA in the neurons. 30 min before the experiment 5 μCi ^3 H-GABA is added to each culture and after this preloading period the cell monolayer at the bottom of the dish is covered with a piece of nylon mesh to protect the cells against mechanical damage and to facilitate dispersion of medium over the cell layer. The preloading medium is removed and the Petri dishes are placed in a superfusion system consisting of a peristaltic pump continously delivering thermostated 37° C. superfusion medium HEPES buffered saline (HBS): 10 mM HEPES, 135 mM NaCl, 5 mM KCl, 0.6 mM MgSO4, 1.0 mM CaCl2 and 6 mM D-glucose; pH 7.4) from a reservoir to the top of the slightly tilted Petri dish. The medium is continously collected from the lower part of the dish and delivered to a fraction collector. Initially, the cells are superfused with HBS for 15 min (flow rate 2 ml/min). Then the cells are stimulated for 30 sec every 4 min by changing the superfusion medium from HBS to a corresponding medium containing […].
Test subtances are dissolved in 50% DMSO, 48% ethanol. The final DMSO and ethanol concentration in the assay must not exceed 0.1%.
The stimulated release of ^3 H-GABA (cpm) are corrected for the mean basal release(cpm) before and after stimulation.
The stimulated release in the presence of antagonists are expressed relative to the stimulated release and the IC50 value for the antagonist is calculated (the concentration (μM) of the test substance which inhibit 50% of the stimulated ^3 H-GABA release).

In assay [3] the test system is Gerbils. As to the kind of experiment: Transient Forebrain Ischemia Model (2-VO Gerbils), global ischaemia, hippocampal damage. The assay is classed as in vivo, gerbil. Conditions: 30 mg/kg bolus i.v. followed by one hour infusion of 30 mg/kg (total 60 mg/kg) after 4 min occlusion; read four days later; Mann-Whitney Rank Sum Test. The method, then: The compound, 8-methyl-5-(4-(N,N-dimethylsulphamoyl)phenyl)-6,7,8,9-tetrahydro-1H-pyrrolo[3,2-h]isoquinoline-2,3-dione-3-O-(N-ethylcarbamoyl)oxime has also been tested in the following animal moder of global ischaemia:
Transient Forebrain Ischemia Model (2-VO Gerbils)
Gerbils were anaesthetized with halothane, right and left carotid arteries located and occluded for 4 minutes. Animals were kept warm before and after the operation using heating lamps. During the operation the gerbils were placed on heating plates, body temperature controlled and maintained at 37±0.5° C. Postocclusion, the gerbils were divided in two groups. One group received 30 mg/kg test compound as a bolus injection i.v. followed by a one hour infusion of 30 mg/kg test compound (total dose was 60 mg/kg). The control group received 0.9% NaCl in the same infusion volume as the treated group. Four days later, the animals were sacrificed, brains removed and cooled to -70° C. Thereafter, the brains were sectioned in […] thick sections of which 5-7 with hippocampal tissue were selected and stained with hematoxylin eosine (HE).
Based upon the degree of hippocampal damage, each hippocampus was categorised into one of four groups (Group 1: no damage in the CA1-layer; Group 2: the CA1-layer partly damaged; Group 3: the CA1-layer completely damaged; and Group 4: damage in more than just the CA1-layer). […]

A value given as a limit tells only on which side of the number the result lay.

The results in this text go back to US5917053A, “Indole-2,3-dione-3-oxime derivatives, their preparation and use” (Neurosearch A/S, priority 1994, dated 1999).

Usually IC50 stands for the concentration that gives 50% inhibition. A lower IC50 goes with inhibition by little substance.

Consider `CCN1Cc2c(-c3ccccc3)cc3c(c2C1)NC(=O)C3=NOC(C)=O` [7-ethyl-5-phenyl-1,6,7,8-tetrahydrobenzo[2,1-b:3,4-c]dipyrrole-2,3-dione 3-O-acetyloxime], for which the half-maximal inhibitory concentration (IC50) turned out to be 1700 nM in assay [1] and 2700 nM in assay [2].
`CN1CCc2c(-c3ccc(S(=O)(=O)N(C)C)cc3)cc3c(c2C1)NC(=O)C3=NOC(=O)NC1CCCCC1` [8-methyl-5-(4-(N,N-dimethylsulphamoyl)phenyl)-6,7,8,9-tetrahydro-1H-pyrrolo[3,2-h]isoquinoline-2,3-dione-3-O-(N-cyclohexylcarbamoyl)oxime]: the IC50 in assay [1] amounted to 14 nM.
Consider `CCNC(=O)ON=C1C(=O)Nc2c1cc(-c1ccc(S(=O)(=O)N(C)C)cc1)c1c2CN(C)CC1` [8-methyl-5-(4-(N,N-dimethylsulphamoyl)phenyl)-6,7,8,9-tetrahydro-1H-pyrrolo[3,2-h]isoquinoline-2,3-dione-3-O-(N-ethylcarbamoyl)oxime], for which the IC50 in assay [1] was 38 nM; in assay [2], 190 nM. The “neuroprotective effect in the gerbil 2-VO model (ischemic score, hippocampal damage)” value in assay [3] is “significant neuroprotective effect”.
For the compound `CCNC(=O)ON=C1C(=O)Nc2c1cc(-c1ccccc1)c1c2CN(C)CC1` [8-methyl-5-phenyl-6,7,8,9-tetrahydro-1H-pyrrolo[3,2-h]isoquinoline-2,3-dione-3-O-(N-ethylcarbamoyl)oxime], the results for the IC50 in assay [1] and in assay [2] were 350 nM and 1400 nM, respectively.
The matching figures for `CC(=O)ON=C1C(=O)Nc2c1cc(-c1ccccc1)c1c2CN(C)CC1` [8-methyl-5-phenyl-6,7,8,9-tetrahydro-1H-pyrrolo[3,2-h]isoquinoline-2,3-dione-3-O-acetyloxime]: 150 nM and 2900 nM.
The corresponding values for `CN1CCc2c(-c3ccccc3)cc3c(c2C1)NC(=O)C3=NOC(=O)C(C)(C)C` [8-methyl-5-phenyl-6,7,8,9-tetrahydro-1H-pyrrolo[3,2-h]isoquinoline-2,3-dione-3-O-pivaloyloxime] are 190 nM and more than 3000 nM.
